Key:
[1] = system: Epidermal growth factor receptor (Homo sapiens), P00533 [UNDEFINED MUTATION]; test: Inhibition of EGFR E746-A750del mutant (unknown origin) assessed as remaining activity at 1 uM by Kinome scan method relative to control
[2] = biological target: Mitogen-activated protein kinase kinase kinase 3 (Homo sapiens) (UniProt Q99759); test: Inhibition of MAP3K3 (unknown origin) assessed as remaining activity at 1 uM by Kinome scan method relative to control
[3] = biological target: Serine/threonine-protein kinase pim-1 (Homo sapiens) (UniProt P11309); test: Inhibition of PIM1 (unknown origin) assessed as remaining activity at 1 uM by Kinome scan method relative to control
[4] = biological target: Protein kinase C theta type (Homo sapiens) (UniProt Q04759); test: Inhibition of PRKCQ (unknown origin) assessed as remaining activity at 1 uM by Kinome scan method relative to control
[5] = biological target: Serine/threonine-protein kinase SBK1 (Homo sapiens) (UniProt Q52WX2); test: Inhibition of SBK1 (unknown origin) assessed as remaining activity at 1 uM by Kinome scan method relative to control
[6] = biological target: Serine/threonine-protein kinase 16 (Homo sapiens) (UniProt O75716); test: Inhibition of STK16 (unknown origin) assessed as remaining activity at 1 uM by Kinome scan method relative to control
[7] = biological target: Serine/threonine-protein kinase TNNI3K (Homo sapiens) (UniProt Q59H18); test: Inhibition of TNNI3K (unknown origin) assessed as remaining activity at 1 uM by Kinome scan method relative to control
[8] = biological target: Wee1-like protein kinase 2 (Homo sapiens) (UniProt P0C1S8); test: Inhibition of WEE2 (unknown origin) assessed as remaining activity at 1 uM by Kinome scan method relative to control
[9] = biological target: Activin receptor type-1-like (Homo sapiens) (UniProt P37023); test: Inhibition of human ACVRL1 assessed as residual activity at 1 uM using Casein as substrate in presence of 33P-ATP by ProQinase assay relative to control
[10] = biological target: Calcium/calmodulin-dependent protein kinase type II subunit delta (Homo sapiens) (UniProt Q13557); test: Inhibition of human CAMK2D assessed as residual activity at 1 uM using RBER-CHKtide as substrate in presence of 33P-ATP by ProQinase assay relative to control
[11] = organism: Homo sapiens; test: Inhibition of human CDK1/CycA2 assessed as residual activity at 1 uM using RBER-CHKtide as substrate in presence of 33P-ATP by ProQinase assay relative to control
[12] = biological target: Cyclin-dependent kinase 4/cyclin D1 (Homo sapiens) (UniProt P11802+P24385); test: Inhibition of human CDK4/CyclinD1 assessed as residual activity at 1 uM using RBER-CHKtide as substrate in presence of 33P-ATP by ProQinase assay relative to control; type: protein-complex assay
[13] = biological target: Casein kinase II subunit alpha' (Homo sapiens) (UniProt P19784); test: Inhibition of human CK2alpha2 assessed as residual activity at 1 uM using casein as substrate in presence of 33P-ATP by ProQinase assay relative to control
[14] = system: Epidermal growth factor receptor (Homo sapiens), P00533 [G719S]; test: Inhibition of human EGFR G719S mutant assessed as residual activity at 1 uM using PolyEY as substrate in presence of 33P-ATP by ProQinase assay relative to control
[15] = biological target: Ephrin type-A receptor 2 (Homo sapiens) (UniProt P29317); test: Inhibition of human EPHA2 assessed as residual activity at 1 uM using polyEy as substrate in presence of 33P-ATP by ProQinase assay relative to control
[16] = biological target: Fibroblast growth factor receptor 1 (Homo sapiens) (UniProt P11362); test: Inhibition of human FGFR1 assessed as residual activity at 1 uM using PolyEY as substrate in presence of 33P-ATP by ProQinase assay relative to control
[17] = biological target: Mitogen-activated protein kinase kinase kinase 11 (Homo sapiens) (UniProt Q16584); test: Inhibition of human MAP3K11 assessed as residual activity at 1 uM using MBP as substrate in presence of 33P-ATP by ProQinase assay relative to control
[18] = biological target: Protein kinase C beta type (Homo sapiens) (UniProt P05771); test: Inhibition of human PKCbeta1 assessed as residual activity at 1 uM using 3xChocktide-PKC(19-31) as substrate in presence of 33P-ATP by ProQinase assay relative to control
[19] = biological target: Ribosomal protein S6 kinase alpha-3 (Homo sapiens) (UniProt P51812); test: Inhibition of human RPS6KA3 assessed as residual activity at 1 uM using bio-4xCHKT as substrate in presence of 33P-ATP by ProQinase assay relative to control
[20] = biological target: T1, Tyrosine-protein kinase Tec (Homo sapiens) (UniProt P42680); test: Inhibition of human TEC assessed as residual activity at 1 uM using polyEY as substrate in presence of 33P-ATP by ProQinase assay relative to control
T1 sequence (whole entry): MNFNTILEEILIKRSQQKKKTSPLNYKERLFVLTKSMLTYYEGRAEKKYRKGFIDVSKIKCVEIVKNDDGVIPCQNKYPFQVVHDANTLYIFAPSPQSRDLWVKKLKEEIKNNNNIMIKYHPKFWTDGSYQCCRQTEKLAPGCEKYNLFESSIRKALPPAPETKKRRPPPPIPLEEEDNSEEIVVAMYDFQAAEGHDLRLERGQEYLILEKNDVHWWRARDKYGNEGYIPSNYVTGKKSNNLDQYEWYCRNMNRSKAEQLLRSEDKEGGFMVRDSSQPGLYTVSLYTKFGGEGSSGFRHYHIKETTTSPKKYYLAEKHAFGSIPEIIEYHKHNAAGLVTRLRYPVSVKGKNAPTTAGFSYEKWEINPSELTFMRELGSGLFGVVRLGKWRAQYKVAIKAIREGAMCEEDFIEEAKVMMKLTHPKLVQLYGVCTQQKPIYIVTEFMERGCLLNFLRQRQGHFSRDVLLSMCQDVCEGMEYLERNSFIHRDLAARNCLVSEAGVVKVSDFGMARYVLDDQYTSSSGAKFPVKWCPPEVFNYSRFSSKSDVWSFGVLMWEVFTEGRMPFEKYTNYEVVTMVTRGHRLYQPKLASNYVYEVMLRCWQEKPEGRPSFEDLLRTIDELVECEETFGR

[21] = biological target: Dual specificity protein kinase TTK (Homo sapiens) (UniProt P33981); test: Inhibition of human TTK assessed as residual activity at 1 uM using RBER-CHKtide as substrate in presence of 33P-ATP by ProQinase assay relative to control
[22] = biological target: Serine/threonine-protein kinase WNK2 (Homo sapiens) (UniProt Q9Y3S1); test: Inhibition of human WNK2 assessed as residual activity at 1 uM using RBER-CHKtide as substrate in presence of 33P-ATP by ProQinase assay relative to control
[23] = biological target: CYP2D6 (Homo sapiens, UniProt P10635); test: Inhibition of CYP2D6 (unknown origin) at 10 uM relative to control; type: ADME
Sequence of CYP2D6 (P10635 whole entry): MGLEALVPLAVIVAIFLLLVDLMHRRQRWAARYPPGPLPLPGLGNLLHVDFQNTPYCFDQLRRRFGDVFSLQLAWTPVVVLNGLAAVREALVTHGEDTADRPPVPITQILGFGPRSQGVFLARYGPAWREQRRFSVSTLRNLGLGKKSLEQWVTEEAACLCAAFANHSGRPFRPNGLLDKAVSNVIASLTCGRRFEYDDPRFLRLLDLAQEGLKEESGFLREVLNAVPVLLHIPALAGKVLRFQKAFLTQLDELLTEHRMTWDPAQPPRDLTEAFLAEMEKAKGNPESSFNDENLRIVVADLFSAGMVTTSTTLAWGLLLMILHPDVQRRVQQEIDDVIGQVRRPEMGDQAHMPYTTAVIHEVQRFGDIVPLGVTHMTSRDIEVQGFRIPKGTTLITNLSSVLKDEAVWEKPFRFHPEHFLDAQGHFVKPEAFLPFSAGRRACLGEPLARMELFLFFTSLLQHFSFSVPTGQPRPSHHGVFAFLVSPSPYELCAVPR

Sequence of Fibroblast growth factor receptor 1 (Homo sapiens) (P11362 22-822 limits assumed): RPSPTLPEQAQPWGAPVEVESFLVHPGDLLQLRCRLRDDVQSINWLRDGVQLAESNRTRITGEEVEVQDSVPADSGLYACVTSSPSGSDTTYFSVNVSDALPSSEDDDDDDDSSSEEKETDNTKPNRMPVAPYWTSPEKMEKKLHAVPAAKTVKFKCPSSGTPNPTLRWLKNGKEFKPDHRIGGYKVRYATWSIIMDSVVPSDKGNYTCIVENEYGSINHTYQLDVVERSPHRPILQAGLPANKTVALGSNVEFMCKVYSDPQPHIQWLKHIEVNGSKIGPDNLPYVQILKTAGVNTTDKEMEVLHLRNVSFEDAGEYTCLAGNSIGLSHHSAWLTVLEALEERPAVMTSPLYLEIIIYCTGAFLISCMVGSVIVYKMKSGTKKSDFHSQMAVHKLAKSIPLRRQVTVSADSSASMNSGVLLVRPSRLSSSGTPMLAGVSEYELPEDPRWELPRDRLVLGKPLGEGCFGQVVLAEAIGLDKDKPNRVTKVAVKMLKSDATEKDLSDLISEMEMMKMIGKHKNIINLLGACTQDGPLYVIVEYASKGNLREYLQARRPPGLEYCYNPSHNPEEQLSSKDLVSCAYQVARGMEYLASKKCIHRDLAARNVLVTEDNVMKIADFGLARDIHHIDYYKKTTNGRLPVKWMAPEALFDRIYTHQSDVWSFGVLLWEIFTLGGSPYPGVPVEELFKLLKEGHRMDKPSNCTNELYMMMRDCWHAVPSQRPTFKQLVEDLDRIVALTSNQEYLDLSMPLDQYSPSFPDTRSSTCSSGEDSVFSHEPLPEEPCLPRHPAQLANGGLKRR
Sequence of Ephrin type-A receptor 2 (Homo sapiens) (P29317 whole entry): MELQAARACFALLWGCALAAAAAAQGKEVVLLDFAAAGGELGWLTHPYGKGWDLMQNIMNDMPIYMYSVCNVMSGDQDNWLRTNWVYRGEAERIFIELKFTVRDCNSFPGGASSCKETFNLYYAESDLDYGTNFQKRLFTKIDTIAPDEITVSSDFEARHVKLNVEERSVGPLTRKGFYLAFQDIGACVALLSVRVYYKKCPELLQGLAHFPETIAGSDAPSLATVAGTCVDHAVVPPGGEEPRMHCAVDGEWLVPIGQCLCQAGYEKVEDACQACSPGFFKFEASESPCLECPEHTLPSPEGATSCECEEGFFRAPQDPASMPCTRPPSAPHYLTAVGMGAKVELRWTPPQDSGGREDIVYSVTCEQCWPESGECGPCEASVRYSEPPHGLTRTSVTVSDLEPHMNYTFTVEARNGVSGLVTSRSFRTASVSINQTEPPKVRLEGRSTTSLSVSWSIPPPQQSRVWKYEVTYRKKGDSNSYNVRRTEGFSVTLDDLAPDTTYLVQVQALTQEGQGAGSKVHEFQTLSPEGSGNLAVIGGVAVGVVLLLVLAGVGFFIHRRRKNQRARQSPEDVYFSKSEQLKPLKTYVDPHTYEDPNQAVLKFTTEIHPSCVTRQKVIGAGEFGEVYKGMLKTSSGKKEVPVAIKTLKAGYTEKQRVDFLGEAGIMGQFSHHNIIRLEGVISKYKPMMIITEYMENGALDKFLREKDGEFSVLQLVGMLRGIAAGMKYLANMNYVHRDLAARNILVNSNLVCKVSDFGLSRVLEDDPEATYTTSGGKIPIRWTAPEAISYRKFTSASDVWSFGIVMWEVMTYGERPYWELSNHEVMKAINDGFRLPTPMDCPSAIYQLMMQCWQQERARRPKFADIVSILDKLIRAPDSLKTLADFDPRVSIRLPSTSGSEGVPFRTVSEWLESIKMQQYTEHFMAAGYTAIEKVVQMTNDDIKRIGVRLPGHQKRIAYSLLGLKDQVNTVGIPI
Sequence of Dual specificity protein kinase TTK (Homo sapiens) (P33981 whole entry): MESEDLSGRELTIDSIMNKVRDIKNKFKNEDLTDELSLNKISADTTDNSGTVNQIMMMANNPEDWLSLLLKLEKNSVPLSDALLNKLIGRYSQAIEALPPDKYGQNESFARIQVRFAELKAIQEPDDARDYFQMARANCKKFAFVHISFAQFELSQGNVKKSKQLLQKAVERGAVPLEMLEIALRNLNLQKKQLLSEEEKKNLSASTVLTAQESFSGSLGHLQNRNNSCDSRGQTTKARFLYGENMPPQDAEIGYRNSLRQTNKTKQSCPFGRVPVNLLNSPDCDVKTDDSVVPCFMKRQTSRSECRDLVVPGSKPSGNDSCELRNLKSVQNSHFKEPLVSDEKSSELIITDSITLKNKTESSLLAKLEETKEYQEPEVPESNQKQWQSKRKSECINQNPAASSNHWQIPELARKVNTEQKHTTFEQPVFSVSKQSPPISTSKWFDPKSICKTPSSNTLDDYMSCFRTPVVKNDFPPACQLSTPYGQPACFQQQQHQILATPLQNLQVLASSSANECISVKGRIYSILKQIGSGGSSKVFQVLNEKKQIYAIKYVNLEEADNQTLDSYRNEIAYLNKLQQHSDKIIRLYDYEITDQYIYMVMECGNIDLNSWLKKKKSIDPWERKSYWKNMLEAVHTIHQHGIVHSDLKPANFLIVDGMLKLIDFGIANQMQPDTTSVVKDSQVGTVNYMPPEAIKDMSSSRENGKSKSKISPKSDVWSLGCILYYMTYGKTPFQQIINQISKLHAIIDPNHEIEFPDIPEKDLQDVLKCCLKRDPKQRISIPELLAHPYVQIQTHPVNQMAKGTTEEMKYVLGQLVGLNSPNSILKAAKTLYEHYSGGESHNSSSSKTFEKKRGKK
Sequence of Calcium/calmodulin-dependent protein kinase type II subunit delta (Homo sapiens) (Q13557 whole entry): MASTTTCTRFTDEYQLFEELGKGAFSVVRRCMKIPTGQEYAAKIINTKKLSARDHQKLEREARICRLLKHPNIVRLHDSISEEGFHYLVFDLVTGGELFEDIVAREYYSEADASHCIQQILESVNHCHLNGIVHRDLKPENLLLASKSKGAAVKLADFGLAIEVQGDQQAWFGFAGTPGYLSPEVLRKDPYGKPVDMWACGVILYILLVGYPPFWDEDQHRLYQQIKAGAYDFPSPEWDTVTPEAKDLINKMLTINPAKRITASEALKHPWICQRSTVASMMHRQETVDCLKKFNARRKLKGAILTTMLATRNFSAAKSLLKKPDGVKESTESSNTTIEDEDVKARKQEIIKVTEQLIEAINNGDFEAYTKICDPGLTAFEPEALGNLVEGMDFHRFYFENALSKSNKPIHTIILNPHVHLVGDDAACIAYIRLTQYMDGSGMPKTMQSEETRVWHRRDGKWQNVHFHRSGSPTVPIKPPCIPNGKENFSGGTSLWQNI
Sequence of Mitogen-activated protein kinase kinase kinase 3 (Homo sapiens) (Q99759 whole entry): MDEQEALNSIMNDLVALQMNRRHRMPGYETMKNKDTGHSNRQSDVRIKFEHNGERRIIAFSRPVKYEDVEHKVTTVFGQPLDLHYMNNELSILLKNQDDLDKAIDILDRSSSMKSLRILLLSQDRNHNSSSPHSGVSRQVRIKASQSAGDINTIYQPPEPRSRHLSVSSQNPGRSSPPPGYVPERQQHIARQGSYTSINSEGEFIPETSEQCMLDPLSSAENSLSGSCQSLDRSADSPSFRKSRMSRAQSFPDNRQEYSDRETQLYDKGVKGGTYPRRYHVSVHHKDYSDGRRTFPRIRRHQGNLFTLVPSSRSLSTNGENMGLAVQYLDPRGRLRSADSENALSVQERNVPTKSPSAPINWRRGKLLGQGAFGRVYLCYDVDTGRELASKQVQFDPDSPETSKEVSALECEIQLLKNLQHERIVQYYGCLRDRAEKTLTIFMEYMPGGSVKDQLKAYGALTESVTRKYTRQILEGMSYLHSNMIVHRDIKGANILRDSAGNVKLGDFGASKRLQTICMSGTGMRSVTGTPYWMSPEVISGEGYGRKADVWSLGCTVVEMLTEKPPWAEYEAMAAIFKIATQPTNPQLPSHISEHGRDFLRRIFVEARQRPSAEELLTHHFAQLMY
Sequence of Protein kinase C beta type (Homo sapiens) (P05771 2-671 limits assumed): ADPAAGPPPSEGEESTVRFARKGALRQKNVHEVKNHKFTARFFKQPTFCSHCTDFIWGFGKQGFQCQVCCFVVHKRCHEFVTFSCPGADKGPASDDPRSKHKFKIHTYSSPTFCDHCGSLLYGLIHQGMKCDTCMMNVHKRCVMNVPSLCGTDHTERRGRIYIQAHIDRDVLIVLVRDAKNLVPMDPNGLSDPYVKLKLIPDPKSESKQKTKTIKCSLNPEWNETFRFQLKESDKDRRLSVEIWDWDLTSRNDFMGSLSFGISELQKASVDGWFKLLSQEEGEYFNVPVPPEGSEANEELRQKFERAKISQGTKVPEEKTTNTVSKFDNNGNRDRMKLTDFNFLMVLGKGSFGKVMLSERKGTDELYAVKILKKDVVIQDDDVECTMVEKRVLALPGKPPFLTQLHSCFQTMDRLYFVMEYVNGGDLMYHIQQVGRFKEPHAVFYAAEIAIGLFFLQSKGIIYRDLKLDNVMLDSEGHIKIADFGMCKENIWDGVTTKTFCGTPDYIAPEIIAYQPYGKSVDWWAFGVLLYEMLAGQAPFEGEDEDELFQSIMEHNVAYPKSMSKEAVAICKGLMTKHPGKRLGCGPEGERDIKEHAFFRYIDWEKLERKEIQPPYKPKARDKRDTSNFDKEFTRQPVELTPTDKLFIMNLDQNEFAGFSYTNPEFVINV

Q: For O=C1c2ccc(Nc3ccc(F)cc3F)cc2CCc2ccc(OC[C@H](O)CO)cc21 [Skepinone-L], which Activity [1] is on record?
A: 72%

Q: And the Activity [2]?
A: 100%

Q: What about the Activity [3] of the same molecule?
A: 100%

Q: And the Activity [4]?
A: 83%

Q: And the Activity [5]?
A: 100%

Q: And the Activity [6]?
A: 87%

Q: What about the Activity [7] of the same molecule?
A: 90%

Q: And the Activity [8]?
A: 90%

Q: And the Activity [9]?
A: 105%

Q: What about the Activity [10] of the same molecule?
A: 43%

Q: What about the Activity [11] of the same molecule?
A: 98%

Q: And the Activity [12]?
A: 92%

Q: What about the Activity [13] of the same molecule?
A: 87%

Q: What about the Activity [14] of the same molecule?
A: 96%

Q: And the Activity [15]?
A: 119%

Q: And the Activity [16]?
A: 117%

Q: What about the Activity [17] of the same molecule?
A: 114%

Q: And the Activity [18]?
A: 103%

Q: And the Activity [19]?
A: 89%

Q: And the Activity [20]?
A: 115%

Q: What about the Activity [21] of the same molecule?
A: 83%

Q: What about the Activity [22] of the same molecule?
A: 95%

Q: And the inhibition at 10 µM [23]?
A: -21%

Reference: ChEMBL document CHEMBL5696441 (Nat Chem Biol, 2011)
